Measurements: patent US20170058349A1, “METHODS FOR MANAGING CARE OF PATIENTS PREDISPOSED TO PROGRESSIVE MITRAL VALVE DISEASES” (The Children's Hospital of Philadelphia, priority 2014, published 2017)

Key:
human MVICs = test: MVIC activation in vitro (SMA expression after 5HT stimulation); assay type: cell-based; settings: for SMA expression on 5HT stimulation: 5HT 10 nM; for VIC activation associated with 5HTR activation: human MVICs in vitro, antagonists of 5HTR2A, 2B and SERT
Experimental: MVICs isolated from healthy controls and patients with LL, LS, SS gene polymorphisms were treated with […] 5HT for 6 days in the presence or absence of a combination of 5HT2A antagonist Ketanserin, 5HT2B antagonist SDZ, and SERT antagonist Fluoxetine. RNA was isolated and tested for SMA expression as a marker of MVIC activation.
MVICs were isolated form patients with LL, LS, or SS genotype and controls (N=5/group) and exposed to 5HT stimulation (10 nM) to measure MVICs activation by alpha smooth muscle actin (SMA) as previously described by Rachana et al. (Journal of cellular physiology 227(6): 2595-604, November 2011. PMCID: PMC3288540) and Poggio et al. (Cardiovascular research 98(3): 402-10, June 2013. PMCID: PMC3656614). A combination of 5HT2A, 2B and SERT antagonists was used to inhibit 5HT stimulation in the three different genotypes (LL, LS, SS) with 10 μM ketanserin, 1 μM SDZ SER-082, and 1 μM Fluoxitine. (FIG. 4). RNA extract was collected to detect SMA expression.

C57BL/6J mice = test: Chronic angiotensin II infusion, remodeling of the mitral valve tissue in mice; assay type: in vivo; settings: 28 days chronic infusion; for ECM remodeling of MV leaflets / 5HTR2A, 5HTR2B and SERT expression in MV leaflets: AngII vs. saline; for ECM remodeling of MV leaflets: histology; for 5HTR2A, 5HTR2B and SERT expression in MV leaflets: immunohistochemistry
Text: (A) Representative H&E staining of cross section of mice hearts harvested 28 days after saline or AngII chronic infusion. (B) Modified Movat Pentachrome staining of MV leaflets harvested 28 days after saline or AngII chronic infusion (Magnification 10× and 43×). (C) and (D) Immunohistochemistry staining of murine MV leaflets using anti-5HTR2A and anti-5HTR2B antibodies, respectively.
We have recently reported that reactive oxygen species (ROS) accumulation is leading aortic VICs activation ex vivo and in vitro with results showing that adenoviral delivery of antioxidant enzymes ameliorates aortic VICs activation. We therefore used our murine model based on chronic AngII infusion to reproduce ROS accumulation in the cardiac tissue (Branchetti et al., Cardiovasc Res. 2013; 100(2):316-324) to test whether we could provoke MV remodeling.

Compound: NCCc1c[nH]c2ccc(O)cc12 [5HT, serotonin]
- SMA expression on 5HT stimulation (human MVICs; MVICs from patients with LL genotype): significant upregulation of SMA
- SMA expression on 5HT stimulation (human MVICs; MVICs from patients with SS and LS genotype): not responsive

Compound: CNCCC(Oc1ccc(C(F)(F)F)cc1)c1ccccc1 (stereo not shown) [Fluoxetine]
- VIC activation associated with 5HTR activation (human MVICs): partially abrogate this effect

Compound: O=C(c1ccc(F)cc1)C1CCN(CCn2c(=O)[nH]c3ccccc3c2=O)CC1 [Ketanserin]
- VIC activation associated with 5HTR activation (human MVICs): partially abrogate this effect

Compound: CN1CC[C@@H]2CN3CCc4cccc(c43)[C@@H]2C1 [SDZ, SDZ SER-082]
- VIC activation associated with 5HTR activation (human MVICs): partially abrogate this effect

Compound: Angiotensin II (DRVYIHPF; Angiotensin-2; UniProt P11859 25-32, looked up) [AngII, chronically infused to induce ROS accumulation and MV remodeling in mice]
- mitral valve cusp thickness (C57BL/6J mice; AngII treated vs. saline infused mice, p<0.01): increased
- ECM remodeling of MV leaflets (C57BL/6J mice): significant rearrangement of the ECM
- ECM remodeling of MV leaflets (C57BL/6J mice; listed as Angiotensin II): ECM remodeling
- 5HTR2A, 5HTR2B and SERT expression in MV leaflets (C57BL/6J mice): increased 5HTR2A and 2B and SERT
- 5HTR2A, 5HTR2B and SERT expression in MV leaflets (C57BL/6J mice; listed as Angiotensin II): increased 5HTR-2B/SERT expressions
